The target in experiment [1] is T1, human phosphodiesterase 5 (PDE-5) (Homo sapiens, UniProt O76074).
T1 construct: PDE-5 preparations are obtained from human platelets by lysis; from tissue; host or cells: human platelets
Briefly: Inhibition of human phosphodiesterase 5 (PDE-5), SPA assay. Format: biochemical. As to conditions: PDE-5 preparation from human platelets, [8-3H]cGMP substrate. Here is the method:
B-6. Inhibition of Human Phosphodiesterase 5 (PDE-5)
PDE-5 preparations are obtained from human platelets by lysis (Microfluidizer®, 800 bar, 3 passages), followed by centrifugation (75000 g, 60 min, 4° C.) and ion-exchange chromatography of the supernatant on a Mono Q 10/10 column (linear sodium chloride gradient, elution with a 0.2-0.3M solution of sodium chloride in buffer (20 mM Hepes pH 7.2, 2 mM magnesium chloride). Fractions that have PDE-5 activity are combined (PDE-5 preparation) and stored at −80° C.
For determining their in-vitro action on human PDE-5, the test substances are dissolved in 100% DMSO and serial dilutions are prepared. Typically, dilution series (1:3) from 200 μM to 0.091 μM are prepared (resultant final concentrations in the test: 4 μM to 0.0018 μM). In each case 2 μL of the diluted solutions of the substance are put in the wells of microtitre plates (Isoplate-96/200W; Perkin-Elmer). Then 50 μL of a dilution of the PDE-5 preparation described above is added. The dilution of the PDE-5 preparation is selected so that during subsequent incubation less than 70% of the substrate is reacted (typical dilution: 1:100; dilution buffer: 50 mM Tris/hydrochloric acid pH 7.5, 8.3 mM magnesium chloride, 1.7 mM EDTA, 0.2% BSA). The substrate [8-^3H]cyclic guanosine-3′,5′-monophosphate (1 μCi/μL; Perkin-Elmer) is diluted 1:2000 with assay buffer (50 mM Tris/hydrochloric acid pH 7.5, 8.3 mM magnesium chloride, 1.7 mM EDTA) to a concentration of 0.0005 μCi/μL. The enzyme reaction is finally started by adding 50 μL (0.025 μCi) of the diluted substrate. The test preparations are incubated for 60 min at room temperature and the reaction is stopped by adding 25 μL of a suspension of 18 mg/mL of Yttrium Scintillation Proximity Beads in water (phosphodiesterase beads for SPA assays, RPNQ 0150, Perkin-Elmer). The microtitre plates are sealed with film and left to stand for 60 min at room temperature. Then the plates are measured for 30 s per well in a Microbeta scintillation counter (Perkin-Elmer). IC50 values are determined on the basis of the graphs plotted of the substance concentration versus the percentage PDE-5 inhibition.

Experiment [2] has as its target T2, recombinant guanylate cyclase reporter cell line (Rattus norvegicus, UniProt P19686+P20595).
T2 construct: expressed in transfected cells
T2 sequence (P20595 1-619): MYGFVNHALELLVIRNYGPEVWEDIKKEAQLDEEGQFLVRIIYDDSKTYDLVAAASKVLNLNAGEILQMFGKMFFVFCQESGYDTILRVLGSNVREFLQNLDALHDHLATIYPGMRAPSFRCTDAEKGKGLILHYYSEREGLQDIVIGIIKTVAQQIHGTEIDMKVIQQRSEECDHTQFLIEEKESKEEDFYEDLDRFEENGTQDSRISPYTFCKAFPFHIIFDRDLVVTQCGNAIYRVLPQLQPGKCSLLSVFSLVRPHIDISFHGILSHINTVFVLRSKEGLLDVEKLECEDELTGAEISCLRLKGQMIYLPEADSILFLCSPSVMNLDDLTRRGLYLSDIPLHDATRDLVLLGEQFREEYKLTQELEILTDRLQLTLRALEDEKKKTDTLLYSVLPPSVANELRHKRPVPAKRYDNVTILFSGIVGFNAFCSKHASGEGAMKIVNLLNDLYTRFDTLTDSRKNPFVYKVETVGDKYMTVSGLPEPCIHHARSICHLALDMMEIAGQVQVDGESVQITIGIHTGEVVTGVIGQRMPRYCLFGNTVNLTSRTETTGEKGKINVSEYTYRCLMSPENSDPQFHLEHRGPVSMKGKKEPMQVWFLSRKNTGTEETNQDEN
T2 sequence (P19686 1-690): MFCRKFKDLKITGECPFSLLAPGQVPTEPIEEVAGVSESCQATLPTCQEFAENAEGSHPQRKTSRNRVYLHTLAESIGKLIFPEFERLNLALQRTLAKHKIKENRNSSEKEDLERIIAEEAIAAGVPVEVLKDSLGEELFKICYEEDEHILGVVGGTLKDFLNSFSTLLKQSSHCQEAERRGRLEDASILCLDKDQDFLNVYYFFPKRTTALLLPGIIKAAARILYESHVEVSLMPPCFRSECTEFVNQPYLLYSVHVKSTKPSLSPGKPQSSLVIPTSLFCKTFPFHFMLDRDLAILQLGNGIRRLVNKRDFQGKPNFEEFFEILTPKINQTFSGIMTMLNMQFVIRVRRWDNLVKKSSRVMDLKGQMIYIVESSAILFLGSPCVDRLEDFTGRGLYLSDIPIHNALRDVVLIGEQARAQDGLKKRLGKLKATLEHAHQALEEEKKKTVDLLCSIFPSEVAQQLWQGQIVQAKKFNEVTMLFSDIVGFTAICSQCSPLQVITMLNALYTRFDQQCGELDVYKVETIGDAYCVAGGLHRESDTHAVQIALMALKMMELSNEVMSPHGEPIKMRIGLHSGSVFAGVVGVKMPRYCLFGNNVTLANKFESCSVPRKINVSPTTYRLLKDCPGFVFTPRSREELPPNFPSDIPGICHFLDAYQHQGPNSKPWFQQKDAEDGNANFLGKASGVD
Briefly: Action on recombinant guanylate cyclase reporter cell line. Format: cell-based. As to the method: B-2. Action on Recombinant Guanylate Cyclase Reporter Cell Line
The cellular action of the compounds according to the invention is determined on a recombinant guanylate cyclase reporter cell line, as described in F. Wunder et al., Anal. Biochem. 339, 104-112 (2005).

The structures appear in SMILES notation.

A word on the IC50: it is the point on the concentration scale where inhibition reaches its midpoint. The low end stands for inhibition by little substance, the high end for a need for much substance.

In the case of `CC1(C)C(=O)Nc2nc(-c3nn(Cc4ccccc4F)c4ncccc34)nc(N3C[C@@H]4C[C@H]3CO4)c21` [Example 46, 2-[1-(2-fluorobenzyl)-1H-pyrazolo[3,4-b]pyridin-3-yl]-5,5-dimethyl-4-[(1S,4S)-2-oxa-5-azabicyclo[2.2.1]hept-5-yl]-5,7-dihydro-6H-pyrrolo[2,3-d]pyrimidin-6-one], the IC50 in experiment [1] is 35 nM. The “MEC (minimal effective concentration)” value in experiment [2] is reported as 0.1 μm.
The matching figures for `CC1(C)C(=O)Nc2nc(-c3nn(Cc4ccccc4F)c4ncccc34)nc(NCCn3ccnn3)c21` [Example 47, 2-[1-(2-fluorobenzyl)-1H-pyrazolo[3,4-b]pyridin-3-yl]-5,5-dimethyl-4-{[2-(1H-1,2,3-triazol-1-yl)ethyl]amino}-5,7-dihydro-6H-pyrrolo[2,3-d]pyrimidin-6-one]: 83 nM and 0.1 μm.
In experiment [1], `Cn1ccc(CNc2nc(-c3nn(Cc4ccccc4F)c4ncccc34)nc3c2C(C)(C)C(=O)N3)n1` [Example 48, 2-[1-(2-fluorobenzyl)-1H-pyrazolo[3,4-b]pyridin-3-yl]-5,5-dimethyl-4-{[(1-methyl-1H-pyrazol-3-yl)methyl]amino}-5,7-dihydro-6H-pyrrolo[2,3-d]pyrimidin-6-one] displayed an IC50 of 54 nM. The “MEC (minimal effective concentration)” value in experiment [2] is given as 0.1 μm.
For the compound `Cc1cc(Nc2nc(-c3nn(Cc4ccccc4F)c4ncccc34)nc3c2C(C)(C)C(=O)N3)nn1C` [Example 50, 4-[(1,5-dimethyl-1H-pyrazol-3-yl)amino]-2-[1-(2-fluorobenzyl)-1H-pyrazolo[3,4-b]pyridin-3-yl]-5,5-dimethyl-5,7-dihydro-6H-pyrrolo[2,3-d]pyrimidin-6-one], the IC50 in experiment [1] is 40 nM. The “MEC (minimal effective concentration)” value in experiment [2] worked out at 0.1 μm.
For `CC1(C)C(=O)Nc2nc(-c3nn(Cc4ccccc4F)c4ncccc34)nc(N[C@@H]3CCCOC3)c21` [Example 51, 2-[1-(2-fluorobenzyl)-1H-pyrazolo[3,4-b]pyridin-3-yl]-5,5-dimethyl-4-(tetrahydro-2H-pyran-3-ylamino)-5,7-dihydro-6H-pyrrolo[2,3-d]pyrimidin-6-one], in that order: 5 nM and 0.03 μm.
For `CC1(C)C(=O)Nc2nc(-c3nn(Cc4ccccc4F)c4ncccc34)nc(N3CCC(O)CC3)c21` [Example 52, 2-[1-(2-fluorobenzyl)-1H-pyrazolo[3,4-b]pyridin-3-yl]-4-(4-hydroxypiperidin-1-yl)-5,5-dimethyl-5,7-dihydro-6H-pyrrolo[2,3-d]pyrimidin-6-one], in that order: 34 nM and 0.01 μm.
In experiment [1], `COC1CN(c2nc(-c3nn(Cc4ccccc4F)c4ncccc34)nc3c2C(C)(C)C(=O)N3)C1` [Example 53, 2-[1-(2-fluorobenzyl)-1H-pyrazolo[3,4-b]pyridin-3-yl]-4-(3-methoxyazetidin-1-yl)-5,5-dimethyl-5,7-dihydro-6H-pyrrolo[2,3-d]pyrimidin-6-one] displayed an IC50 of 150 nM. Further, in experiment [2], the “MEC (minimal effective concentration)” value is given as 3.0 μm.
The matching figures for `CC1(C)C(=O)Nc2nc(-c3nn(Cc4ccccc4F)c4ncccc34)nc(NCc3ccccn3)c21` [Example 55, 2-[1-(2-fluorobenzyl)-1H-pyrazolo[3,4-b]pyridin-3-yl]-5,5-dimethyl-4-[(pyridin-2-ylmethyl)amino]-5,7-dihydro-6H-pyrrolo[2,3-d]pyrimidin-6-one]: 130 nM and 0.03 μm.
In turn, `COCCNc1nc(-c2nn(Cc3ccccc3F)c3ncccc23)nc2c1C(C)(C)C(=O)N2` [Example 56, 2-[1-(2-fluorobenzyl)-1H-pyrazolo[3,4-b]pyridin-3-yl]-4-[(2-methoxyethyl)amino]-5,5-dimethyl-5,7-dihydro-6H-pyrrolo[2,3-d]pyrimidin-6-one] came in with an IC50 in experiment [1] of 34 nM. For the same compound, the “MEC (minimal effective concentration)” value in experiment [2] is 0.03 μm.
With `CC1(C)C(=O)Nc2nc(-c3nn(Cc4ccccc4F)c4ncccc34)nc(NCCn3cccn3)c21` [Example 58, 2-[1-(2-fluorobenzyl)-1H-pyrazolo[3,4-b]pyridin-3-yl]-5,5-dimethyl-4-{[2-(1H-pyrazol-1-yl)ethyl]amino}-5,7-dihydro-6H-pyrrolo[2,3-d]pyrimidin-6-one], the IC50 in experiment [1] amounted to 270 nM. In experiment [2], the “MEC (minimal effective concentration)” value is listed as 0.03 μm.
The matching figures for `Cn1cc(CNc2nc(-c3nn(Cc4ccccc4F)c4ncccc34)nc3c2C(C)(C)C(=O)N3)cn1` [Example 59, 2-[1-(2-fluorobenzyl)-1H-pyrazolo[3,4-b]pyridin-3-yl]-5,5-dimethyl-4-{[(1-methyl-1H-pyrazol-4-yl)methyl]amino}-5,7-dihydro-6H-pyrrolo[2,3-d]pyrimidin-6-one]: 8 nM and 0.1 μm.
As for `Cn1ccnc1CNc1nc(-c2nn(Cc3ccccc3F)c3ncccc23)nc2c1C(C)(C)C(=O)N2` [Example 60, 2-[1-(2-fluorobenzyl)-1H-pyrazolo[3,4-b]pyridin-3-yl]-5,5-dimethyl-4-{[(1-methyl-1H-imidazol-2-yl)methyl]amino}-5,7-dihydro-6H-pyrrolo[2,3-d]pyrimidin-6-one], inhibition in experiment [1] was half-maximal at 430 nM (IC50). Besides, the “MEC (minimal effective concentration)” value in experiment [2] is recorded as 0.3 μm.
Compound `CCN(CCOC)c1nc(-c2nn(Cc3ccccc3F)c3ncccc23)nc2c1C(C)(C)C(=O)N2` [Example 61, 4-[ethyl(2-methoxyethyl)amino]-2-[1-(2-fluorobenzyl)-1H-pyrazolo[3,4-b]pyridin-3-yl]-5,5-dimethyl-5,7-dihydro-6H-pyrrolo[2,3-d]pyrimidin-6-one] came in with an IC50 in experiment [1] of 100 nM. Besides, the “MEC (minimal effective concentration)” value in experiment [2] turned out to be 0.03 μm.
For `Cc1nccn1-c1nc(-c2nn(Cc3ccccc3F)c3ncccc23)nc2c1C(C)(C)C(=O)N2` [Example 62, 2-[1-(2-fluorobenzyl)-1H-pyrazolo[3,4-b]pyridin-3-yl]-5,5-dimethyl-4-(2-methyl-1H-imidazol-1-yl)-5,7-dihydro-6H-pyrrolo[2,3-d]pyrimidin-6-one], in that order: 480 nM and 0.1 μm.

These data come from US8859569B2, “Substituted annellated pyrimidines and use thereof” (Bayer Pharma Aktiengesellschaft, priority 2011, dated 2014).
